The values that follow come from patent US20250282723A1, “AMYLOID TARGETING AGENTS AND METHODS OF USING THE SAME” (The Regents of the University of California, priority 2021, published 2025).

Data set [1] has as its target T1, aggregated Aβ (1-42) peptides (Homo sapiens, UniProt P05067).
T1 construct: Synthetic Aβ (1-42) peptide was purchased from Biopeptide, Co LLC; purchased Biopeptide, Co LLC (San Diego, California); host or cells: chemical synthesis
The data set can be described thus: Estimation of binding constant (KD) to aggregated Aβ (1-42) peptides. The following applies: aggregated Aβ(1-42) 5 μM, increasing concentration of probe, 5% DMSO in nanopure water. The procedure: Preparation of aggregated Aβ (1-42) peptides. Synthetic Aβ (1-42) peptide was purchased from Biopeptide, Co LLC (San Diego, California). Aggregated Aβ (1-42) was prepared as previously described.^26 Briefly, Aβ (1-42) was dissolved in 100% 1,1,1,3,3,3,-hexafluoro-2-propanol (HFIP) to a concentration of 1 mM and put on a shaker at room temperature (RT) for 24 hours. The solution was then diluted in cold nanopure water (2:1 H2O: HFIP). Aliquoted fractions were lyophilized for 3 days before dissolving in nanopure water to a concentration of 100 μM. Aggregated Aβ solutions were incubated and shaken at 37° C. for 3 days before use. The formation of soluble aggregates (67% fibrils as a mixture with 13% oligomers and 20% monomer) was confirmed using a standard thioflavin T (ThT) assay and by Sodium Dodecyl Sulphate-Polyacrylamide Gel Electrophoresis (SDS-PAGE) gel analysis (FIG. 11 and FIG. 12).
Estimation of Binding Constant (KD) to aggregated Aβ (1-42) peptides. Aggregated Aβ(1-42) at a final concentration of 5 μM (based on the molecular weight of monomer) was mixed with increasing concentration of each probe in 5% DMSO in nanopure water. KD's were determined as previously described.^21
Synthetic Aβ (1-42) peptide was purchased from Biopeptide, Co LLC (San Diego, California). Aggregated Aβ (1-42) was prepared as previously described.^32 Briefly, monomeric Aβ (1-42) was dissolved in 100% 1,1,1,3,3,3,-hexafluoro-2-propanol (HFIP) to a final concentration of 1 mM and dissolved on a shaker at RT for 24 hours. This solution was then diluted with cold nanopure water (2:1 H2O:HFIP) and aliquoted into fractions. These samples were then lyophilized for 3 days before dissolving in nanopure water to a final concentration of 100 μM. AD solutions were aggregated by incubating and shaking at 37° C. for 3 days before use. The formation of soluble aggregates was confirmed using a standard Thioflavin T (ThT) assay and by SDS-PAGE gel analysis.^1
Aggregated Aβ(1-42) or αS at a final concentration of 5 μM (based on the molecular weight of the monomer) was mixed with an increasing concentration of each probe in 5% DMSO in nanopure water. Kd's were calculated as previously described.^34 The measurements for each probe were repeated in technical triplicates and the averages are shown with standard deviations. Kd's for probes 1-3 with aggregated Aβ(1-42) have been reported previously.^31

A short description of data set [2]: Quantum yield measurements. It is filed as physicochemical. Particulars: 5% DMSO/H2O, reference standard Coumarin 30; for Quantum Yield (Φ): probes of FIG. 14. The procedure: Quantum Yield Measurements. To determine the quantum yield (QY) of compounds ARCAM, 1-5, a procedure that was similar to a previously reported protocol for estimating the QY for Thioflavin T^24 was used. Briefly, the absorbance spectrum of each probe (in 5% Dimethyl Sulfoxide (DMSO)/water (H2O)), in addition to the absorbance spectrum for the reference standard (Coumarin 30, QY=0.67)^27 was measured. The wavelength at which the two normalized absorbance curves intersected was used as the excitation wavelength. A serial dilution of each probe and the standard was made with absorbance values at the excitation wavelength in the range of 0 to 0.1 absorbance units. At each concentration, the emission spectra for each probe and the standard were measured. Technical triplicates of these experiments were performed for all probes, and the averages were recorded. From these emission spectra, the area under the curve was calculated and plotted against the absorbance at each concentration (FIGS. 3-7). The data were fitted to Equation 1 to obtain estimates for QY: […]
where QY represents the quantum yield, A represents the absorbance, E represents the integrated fluorescence emission, η represents the refractive index of the solvent^28,29, and the ‘p’ and ‘r’ subscripts signify the probe or the reference compound, respectively.
Quantum Yield ((D) for each probe was measured as described previously.^31 Briefly, we measured the absorbance spectrum of each probe in 5% DMSO/H2O, as well as the absorbance spectrum for the reference standard (Coumarin 30, =0.67 in Acetonitrile). Both normalized absorbance curves were plotted, and the wavelength of intersection was used as the excitation wavelength. A serial dilution was made for each probe and the standard with absorbance values at the excitation wavelength varying between of 0 to 0.1 absorbance units. At each concentration, the emission spectra for each probe and the standard were measured. Each experiment was repeated in technical triplicates for all probes, and the averages were recorded. The integrated fluorescence emission was calculated and plotted against the absorbance at each concentration. The data were fitted to Equation Si to obtain estimates for Φ: […]
where Φ represents the quantum yield, A represents the absorbance, E represents the integrated fluorescence emission, η represents the refractive index of the solvent, and the ‘p’ and ‘r’ subscripts signify the probe or the reference compound, respectively.

T1 sequence (P05067 672-713): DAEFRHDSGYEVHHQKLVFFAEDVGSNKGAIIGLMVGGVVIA

`CCC1CCCCN1c1ccc2cc(/C=C(\C#N)C(=O)NCCOCCOCCOC)ccc2c1` (racemic) [Compound 5, (E)-2-cyano-3-(6-(2-ethylpiperidin-1-yl)naphthalen-2-yl)-N-(2-(2-(2-methoxyethoxy)ethoxy)ethyl)acrylamide]: the Kd (usually the concentration at which binding is half-saturated) in data set [1] was 3.2 ± 0.6 µM. In data set [2], the QY stood at 0.0055 ± 0.0010 and the “Quantum Yield (Φ)” value is listed as 0.0055.

On to `COCCOCCOCCNC(=O)C(C#N)=Cc1ccc2cc(N3CCCCC3)ccc2c1` (mixture of isomers) [Compound 1], for which the Kd in data set [1] is 6.3 ± 0.7 µM. Further, in data set [2], the QY turned out to be 0.0066 ± 0.0023 and the “Quantum Yield (Φ)” value was 0.0066.

`COCCOCCOCCNC(=O)/C(C#N)=C/c1ccc2cc(N3CCCCC3C)ccc2c1` (racemic) [Compound 4, (E)-2-cyano-N-(2-(2-(2-methoxyethoxy)ethoxy)ethyl)-3-(6-(2-methylpiperidin-1-yl)naphthalen-2-yl)acrylamide]: the Kd in data set [1] is 4.4 ± 2.3 µM. In data set [2], the QY worked out at 0.0062 ± 0.0003 and the “Quantum Yield (Φ)” value was 0.0062.
